From ChEMBL document CHEMBL1201862, “PubChem BioAssay data set” (2004) come the findings set out here.

Among the test systems are OVCAR-5; NCI-H522; HCC 2998; NCI-H226; CCRF-CEM; HCT-15; OVCAR-8; HT-29; K562; CAKI-1; UACC-62; SF-268; MOLT-4; BT-549; UO-31; U-251; SN12C; A549; SW-620; HCT-116.
Common to all, as to experiment: growth of human tumour cells (NCI), 48 h

Molecules are shown by their SMILES.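 Step 1: Grow cells in 96-well plates. Step 2: Expose to compound for 48 hours at 5 concentrations. Step 3: Interpolate endpoints linearly; if unreached, use highest concentration. Abbreviation: GI50, concentration required for 50% inhibition of growth.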 Active and inactive are the calls of the source. Cut-off read from the data, not from the text of the source: active = GI50 up to about 1.1 µM and inactive = higher.

On to `COc1ccc(/C=C2/CSC/C(=C/c3ccc(OC)c(OC)c3)C2=O)cc1OC`, for which the GI50 in the assay on OVCAR-5 was 4.62 µM (inactive); in the assay with NCI-H522 it was 2.26 µM (inactive); in the assay with HCC 2998 it was 2.57 µM (inactive); with NCI-H226, 1.92 µM (inactive); in the assay with CCRF-CEM, 0.849 µM (active); in the assay on HCT-15, 1.52 µM. The GI50 in the assay on OVCAR-8 was 0.664 µM (active); in the assay on HT-29, 1.09 µM (active); in the assay on K562, 1.42 µM (inactive); with CAKI-1, 3.49 µM (inactive); with UACC-62, 1.69 µM (inactive); in the assay with SF-268, 1.99 µM (inactive). Also, the GI50 with MOLT-4 was 1.74 µM (inactive); in the assay on BT-549, 2.88 µM (inactive); in the assay on UO-31, 4.65 µM (inactive); in the assay with U-251, 1.01 µM (active); with SN12C, 1.77 µM (inactive); in the assay on A549, 2.27 µM (inactive). For the same molecule, the GI50 with SW-620 was 1.19 µM (inactive); with HCT-116, 0.971 µM (active).
Consider `O=C1C(F)=CC(COC(c2ccccc2)(c2ccccc2)c2ccccc2)OC1n1cc(F)c(=O)[nH]c1=O` (centres undefined), for which the GI50 in the assay with OVCAR-5 is 2.14 µM (inactive); in the assay on NCI-H522 it was 1.61 µM (inactive); in the assay on HCC 2998, 3.54 µM (inactive); with NCI-H226, 1.83 µM (inactive); in the assay with CCRF-CEM, 0.319 µM (active); in the assay with HCT-15, 1.67 µM. The GI50 with OVCAR-8 is 1.87 µM (inactive); in the assay with HT-29, 0.412 µM (active); in the assay with K562 it was 0.278 µM (active); in the assay with CAKI-1 it was 2.49 µM (inactive); in the assay on UACC-62, 1.61 µM (inactive); in the assay with SF-268, 2.9 µM (inactive). The GI50 was 0.8 µM (active) with MOLT-4; 1.71 µM (inactive) in the assay with BT-549; 2.2 µM (inactive) in the assay on UO-31; 1.36 µM (inactive) with U-251; 1.75 µM (inactive) with SN12C; 2.18 µM (inactive) in the assay on A549. Moreover, the GI50 in the assay on SW-620 is 0.723 µM (active); in the assay with HCT-116 it was 2.77 µM (inactive).
Regarding `N=c1oc2ccccc2cc1C(=O)NC12CC3CC(CC(C3)C1)C2`, the GI50 is 37.5 µM (inactive) in the assay on OVCAR-5; 3.55 µM (inactive) with NCI-H522; 14.5 µM (inactive) in the assay with HCC 2998; 24.2 µM (inactive) in the assay on NCI-H226; 3.18 µM (inactive) with CCRF-CEM; 12.5 µM in the assay with HCT-15. Moreover, the GI50 in the assay on OVCAR-8 is 30.4 µM (inactive); in the assay on HT-29, 6.11 µM (inactive); with K562 it was 13.9 µM (inactive); with CAKI-1, 7.52 µM (inactive); with UACC-62, 15.8 µM (inactive); in the assay with SF-268, 34 µM (inactive). Also, the GI50 was 2.41 µM (inactive) with MOLT-4; 18.2 µM (inactive) with BT-549; 0.0887 µM (active) in the assay with UO-31; 17.1 µM (inactive) in the assay with U-251; 28.2 µM (inactive) with SN12C; 16.2 µM (inactive) with A549. Also, the GI50 was 19.3 µM (inactive) in the assay with SW-620 and 15.6 µM (inactive) in the assay with HCT-116.
Take `N#Cc1c(Cl)cc(C#N)n2c1nc1ccccc12`: the GI50 in the assay with OVCAR-5 is 16.4 µM (inactive); with NCI-H522, 2.42 µM (inactive); in the assay with HCC 2998, 21.2 µM (inactive); in the assay with NCI-H226, 33.7 µM (inactive); in the assay on CCRF-CEM it was 1.3 µM (inactive); with HCT-15, 6.07 µM. Also, the GI50 is 5.92 µM (inactive) in the assay on OVCAR-8; 6.87 µM (inactive) in the assay on HT-29; 3.03 µM (inactive) in the assay on K562; 5.64 µM (inactive) with CAKI-1; 18.3 µM (inactive) in the assay on UACC-62; 5.6 µM (inactive) in the assay with SF-268. The GI50 in the assay with MOLT-4 was 2.3 µM (inactive); in the assay on BT-549, 6.12 µM (inactive); with UO-31 it was 7.85 µM (inactive); in the assay with U-251, 20.8 µM (inactive); in the assay with SN12C it was 19.4 µM (inactive); in the assay with A549 it was 15 µM (inactive). Moreover, the GI50 is 3.47 µM (inactive) with SW-620 and 4.11 µM (inactive) in the assay with HCT-116.
Take `CCC1(CC)CC(=NNS(=O)(=O)c2ccc(C)cc2)C1`: the GI50 is > 100 µM (inactive) with OVCAR-5; > 100 µM (inactive) in the assay on NCI-H522; > 100 µM (inactive) in the assay on HCC 2998; > 100 µM (inactive) with NCI-H226; > 100 µM (inactive) with CCRF-CEM; more than 100 µM with HCT-15. In addition, the GI50 in the assay with OVCAR-8, with HT-29, with K562, in the assay with CAKI-1, with UACC-62 and in the assay with SF-268 was > 100 µM (inactive) throughout. In addition, the GI50 with MOLT-4, with BT-549, in the assay with UO-31, in the assay on U-251, in the assay on SN12C and in the assay with A549 was > 100 µM (inactive) throughout. Moreover, the GI50 with SW-620 and in the assay with HCT-116 was > 100 µM (inactive) throughout.
Turning to `COc1ccc2cc1Oc1ccc(cc1)C(Sc1ccccc1)CCOC(=O)CC2` (centres undefined), the GI50 in the assay with OVCAR-5 is > 100 µM (inactive); with NCI-H522 it was > 100 µM (inactive); in the assay on HCC 2998, > 100 µM (inactive); in the assay with NCI-H226 it was > 100 µM (inactive); in the assay on CCRF-CEM it was > 100 µM (inactive); with HCT-15, 18.1 µM. The GI50 with OVCAR-8 is > 100 µM (inactive); with HT-29, > 100 µM (inactive); in the assay with K562, 82.8 µM (inactive); in the assay with CAKI-1 it was > 100 µM (inactive); in the assay on UACC-62, > 100 µM (inactive); in the assay with SF-268, > 100 µM (inactive). For the same molecule, the GI50 with MOLT-4, in the assay on BT-549, with UO-31, in the assay on U-251, in the assay with SN12C and with A549 was > 100 µM (inactive) throughout. Besides, the GI50 with SW-620 and in the assay with HCT-116 was > 100 µM (inactive) each time.
For the molecule `CCC(N)(C(=O)O)C(C)C` (centres undefined), the GI50 is > 100 µM (inactive) in the assay on OVCAR-5; > 100 µM (inactive) with NCI-H522; > 100 µM (inactive) in the assay with HCC 2998; > 100 µM (inactive) in the assay on NCI-H226; > 100 µM (inactive) in the assay with CCRF-CEM; more than 100 µM with HCT-15. Besides, the GI50 in the assay with OVCAR-8, with HT-29, with K562, in the assay with CAKI-1, in the assay with UACC-62 and in the assay with SF-268 was > 100 µM (inactive) each time. For the same molecule, the GI50 in the assay with BT-549, in the assay with UO-31, in the assay on U-251, in the assay with SN12C, in the assay with A549 and in the assay on SW-620 was > 100 µM (inactive) each time. In addition, in the assay with HCT-116, the GI50 is > 100 µM (inactive).
In the case of `C1=N\CCNCC/N=C/c2ccccc2OCc2cccc(n2)COc2ccccc2/1`, the GI50 in the assay with OVCAR-5 was 37.5 µM (inactive); in the assay on NCI-H522 it was 27.5 µM (inactive); in the assay on HCC 2998, 19.5 µM (inactive); in the assay on NCI-H226, 26.3 µM (inactive); in the assay on CCRF-CEM, 3.33 µM (inactive); in the assay on HCT-15, 4.69 µM. In addition, the GI50 with OVCAR-8 is 9.44 µM (inactive); in the assay with HT-29, 10.7 µM (inactive); in the assay with K562, 4.59 µM (inactive); in the assay with CAKI-1 it was 42.8 µM (inactive); with UACC-62 it was 6.15 µM (inactive); in the assay on SF-268, 12.9 µM (inactive). The GI50 in the assay on MOLT-4 was 6.43 µM (inactive); in the assay on BT-549, 12 µM (inactive); in the assay with UO-31, 9.12 µM (inactive); with U-251, 6.32 µM (inactive); in the assay on SN12C, 13.2 µM (inactive); in the assay with A549 it was > 100 µM (inactive). The GI50 was 7.05 µM (inactive) in the assay with SW-620 and 3.57 µM (inactive) with HCT-116.
In the case of `C=C1C(=O)C=C2C=C3C(=O)C(C)(C)C[C@]3(O)C12C` (some centres undefined), the GI50 in the assay with OVCAR-5 is 9.55 µM (inactive); in the assay with NCI-H522, 1.61 µM (inactive); in the assay with HCC 2998 it was 19.7 µM (inactive); in the assay with NCI-H226 it was 22.1 µM (inactive); in the assay with CCRF-CEM it was 0.131 µM (active); in the assay with HCT-15 it was 2.25 µM. Further, the GI50 with OVCAR-8 is 8.57 µM (inactive); in the assay on HT-29, 3.27 µM (inactive); with K562 it was 0.684 µM (active); with CAKI-1, 1.82 µM (inactive); in the assay on UACC-62, 8.39 µM (inactive); in the assay on SF-268, 5.65 µM (inactive). Further, the GI50 in the assay with MOLT-4 was 0.57 µM (active); with BT-549, 1.54 µM (inactive); in the assay on UO-31, 7.11 µM (inactive); in the assay on U-251 it was 17.9 µM (inactive); with SN12C, 9.4 µM (inactive); with A549 it was 20 µM (inactive). The GI50 was 0.968 µM (active) with SW-620 and 3.97 µM (inactive) in the assay with HCT-116.
Regarding `CN1C/C(=C\c2cccs2)C(=O)/C(=C/c2cccs2)C1`, the GI50 in the assay on OVCAR-5 was 20.6 µM (inactive); in the assay with NCI-H522, 75.2 µM (inactive); in the assay on HCC 2998, 19.5 µM (inactive); in the assay on NCI-H226, > 100 µM (inactive); in the assay on CCRF-CEM, 5.27 µM (inactive); in the assay on HCT-15, 27.2 µM. Also, the GI50 in the assay with OVCAR-8 was 20 µM (inactive); with HT-29 it was 18.7 µM (inactive); with K562, 25.1 µM (inactive); in the assay with CAKI-1 it was 31.1 µM (inactive); with UACC-62, 57.3 µM (inactive); in the assay with SF-268 it was 46.7 µM (inactive). Moreover, the GI50 with MOLT-4 was 6.59 µM (inactive); with BT-549, 21.4 µM (inactive); in the assay on UO-31, 18.7 µM (inactive); in the assay with U-251 it was 15.6 µM (inactive); in the assay with SN12C it was 21.8 µM (inactive); in the assay on A549, 21.9 µM (inactive). The GI50 in the assay on SW-620 is 40.7 µM (inactive); in the assay with HCT-116, 14.2 µM (inactive).
